Assay results from a melting point compilation (Tetko et al.).

| melting point [°C] | SMILES |
| --- | --- |
| 134 to 136 | Fc1ccccc1Cc1nnc(S)o1 |
| 107 to 109 | CC1CNc2ccccc2N(Cc2ccccc2)C1=O (configuration not stated) |
| 223 to 225 | COc1ccc2c(c1)NC(=O)C2=O |
| 88 to 90 | Nc1[nH]ncc1CCCO |
| 274 to 276 | Cc1cc(=O)[nH]c(C)c1C(=O)O |
| 152 to 154 | CC(=O)c1ccc(S(=O)(=O)Nc2ccc(C(=O)O)cc2)cc1 |
| 44 to 46 | CCOC(=O)C(NC(C)=O)C(C)=O (configuration not stated) |
| 63 to 65 | O=S(=O)(CCO)c1ccc(Br)cc1 |
| 104 to 106 | NC1CCN(c2ccc(Cl)c(Cl)c2)C1=O (configuration not stated) |
| 148 to 150 | Fc1ccc(-c2csc3nc(Cc4ccc(Cl)cc4)nc(Cl)c23)cc1 |
| 203 to 205 | O=C(O)c1cc([N+](=O)[O-])ccc1SC1CCCC1 |
| 104 to 106 | CC(C)NS(=O)(=O)C1CCNC1 (configuration not stated) |
| 47 to 49 | C=CC(=O)NCC1CCCCC1 |
| 49 to 51 | CC(C)(C)NCC(N)=O |
| 141 to 143 | Cc1cccc(-n2cc(C(=O)CCl)nn2)c1 |
| 231 to 233 | O=C(O)c1cc(S(=O)(=O)NCc2ccccn2)c(Cl)cc1Cl |
| 272 to 274 | CS(=O)(=O)c1ccc(CN)cc1 |
| 140 to 142 | O=C1Nc2ccccc2NC1CO (configuration not stated) |
| 242 to 244 | O=C(O)c1cc2ccc(Cl)cc2[nH]1 |
| 277 to 279 | NS(=O)(=O)c1ccc(N2CCOCC2)c(C(=O)O)c1 |
| 201 to 203 | COc1ccc(-c2ccc(C(=O)O)c(F)c2)cc1 |
| 124 to 126 | O=c1c2ccccc2ncn1CCCl |
| 55 to 57 | CCOc1cc(C=O)cc(Cl)c1OC |
| 118 to 120 | O=Cc1cnc(Cl)nc1 |
| 199 to 201 | O=C1Nc2cccc(I)c2C1=O |

| melting point [°C] | SMILES |
| --- | --- |
| 137 to 139 | CCC(CC)n1nccc1C(=O)O |
| 211 to 213 | Cc1ccc(-c2nnc(N)[nH]2)c(C)c1 |
| 286 to 288 | O=C(O)c1c[nH]c2ccc(I)cc2c1=O |
| 80 to 82 | COC(=O)c1cc(C)cc([N+](=O)[O-])c1 |
| 209 to 211 | Cc1nc(-c2ccccn2)[nH]c(=O)c1CC(=O)O |
| 129 to 131 | Cc1cc(C(=O)O)ncn1 |
| 198 to 200 | Cc1cc(C)n(C(C)C(=O)Nc2ccc(N)cc2Cl)n1 (configuration not stated) |
| 117 to 119 | O=Cc1cc(Br)c2c(c1)OCO2 |
| 138 to 140 | O=C(O)C1CC(=O)N(CCOc2ccccc2Cl)C1 (configuration not stated) |
| 143 to 145 | NS(=O)(=O)c1c(Cl)cccc1[N+](=O)[O-] |
| 152 to 154 | NNC(=O)COc1ccccc1O |
| 84 to 86 | CCNS(=O)(=O)c1ccccc1OC |
| 172 to 174 | O=C(O)Cn1ccc([N+](=O)[O-])n1 |
| 197 to 199 | O=C(Nc1nnc(C2CC2)s1)OCC(F)(F)F |
| 54 to 56 | CCc1cnc(N)s1 |
| 115 to 117 | COC(=O)c1ccc(N)s1 |
| 90 to 95 | CC(=O)c1cc(CCC(=O)O)oc1C |
| 74 to 76 | CCN(CC)S(=O)(=O)c1ccc(O)c(N)c1 |
| 132 to 134 | Cc1cc2oc(=O)cc(CCl)c2cc1C(C)C |
| 67 to 69 | COCCCOc1cc(C)ccc1C#N |
| 62 to 64 | BrCCc1ccc2ccccc2c1 |
| 49 to 51 | CC1(C)CCC(C)(O)CC1 |
| 79 to 81 | CCOC(=O)Nc1ccc(Br)cc1 |
| 156 to 158 | Cc1cccc(C2(C(=O)O)CCCC2)c1 |
| 152 to 154 | O=C(Nc1cccc(N2CCOC2=O)c1)OCC(F)(F)F |

| melting point [°C] | SMILES |
| --- | --- |
| 170 to 172 | Cc1cccc(NC(=S)NN)c1C |
| 112 to 114 | CCc1ccc(C(=O)N2CCC(C(=O)O)CC2)o1 |
| 177 to 179 | NC(=O)C1CCCCN1C(=O)c1cccc(Br)c1 (configuration not stated) |
| 89 to 91 | COc1cc(Cl)ccc1S(=O)(=O)Cl |
| 211 to 213 | O=Cc1c[nH]c2ncccc12 |
| 270 to 272 | Cn1c2ccccc2n2c(S)nnc12 |
| 108 to 110 | COc1ccc(N)cc1NC(=O)OC(C)(C)C |
| 119 to 121 | CC(=O)c1cc2nc(C)ccc2o1 |
| 134 to 136 | CCc1sc(N)c(C(N)=O)c1C |
| 181 to 183 | Cc1ccc(S(=O)(=O)N2CCC(C(=O)O)CC2)cc1 |
| 72 to 74 | O=C(NCCCl)C1CCCC1 |
| 167 to 169 | CC1(C)NC(=O)N(Cc2ccc(C#N)cc2)C1=O |
| 150 to 152 | Cc1ccc(CNC(=O)c2ccccc2NC(=O)CCl)cc1 |
| 145 to 147 | Cc1ccc(-c2nnc(Cl)c3ccccc23)cc1 |
| 159 to 161 | CCOc1cc(C(=O)O)ccc1OC(F)F |
| 156 to 158 | O=S(=O)(Nc1ccc(O)cc1)c1ccccc1 |
| 208 to 212 | CCOc1ccc(-c2nnc(S)n2N)cc1 |
| 210 to 212 | CCNc1c(N)n(CC)c(=O)[nH]c1=O |
| 75 to 77 | O=Cc1ccc(OCc2cccnc2)cc1 |
| 179 to 181 | CC(C)(C)NS(=O)(=O)c1ccc(Cl)c(C(=O)O)c1 |
| 88 to 90 | Cc1ccc(C(=O)C(O)c2ccc(C)cc2)cc1 (configuration not stated) |
| 59 to 61 | OC1(Cc2cccc(F)c2)CCNC1 (configuration not stated) |
| 178 to 182 | Sc1nc2ccccc2n1C1CCCCC1 |
| 96 to 98 | O=C1CCOc2cc3c(cc21)OCO3 |
| 56 to 58 | Cc1nn(-c2ccccc2Cl)c2sc(C(=O)O)cc12 |

| melting point [°C] | SMILES |
| --- | --- |
| 194 to 196 | N#Cc1ncn(CC(N)=O)n1 |
| 262 to 264 | Cn1cc(-c2nc(C(=O)O)cs2)cn1 |
| 182 to 184 | O=C(O)c1ccc(=O)n(Cc2ccccc2Cl)c1 |
| 82 to 84 | NC(=S)CCc1ccccc1 |
| 176 to 178 | Cc1cc(C(=O)O)cc(S(=O)(=O)N2CCC(C)CC2)c1C |
| 204 to 206 | O=C(Nc1ccc(N2CCOCC2)nc1)OCC(F)(F)F |
| 87 to 89 | O=C(O)C(=O)c1ccc(Cl)cc1 |
| 60 to 62 | CCOc1ccc(Cl)nn1 |
| 199 to 201 | Cc1cc(C(=O)O)on1 |
| 242 to 244 | Cc1nn(C)c2nc(C3CC3)cc(C(=O)O)c12 |
| 186 to 188 | Nc1nc(-c2cccc([N+](=O)[O-])c2)cs1 |
| 143 to 145 | COC(=O)c1nc(Cl)ccc1S(=O)(=O)Cl |
| 131 to 133 | Cc1cn(-c2ncccc2F)nc1N |
| 295 to 297 | O=C(O)c1ccc2c(c1)C(=O)N(c1ccc(F)cc1)C2=O |
| 142 to 144 | CC(=O)c1cccc(S(=O)(=O)N2CCOCC2)c1 |
| 144 to 146 | Nc1cc(-c2ccc(Br)o2)no1 |
| 171 to 173 | Cc1cc(C(=O)CCl)c(C)n1-c1cccc(S(=O)(=O)N2CCOCC2)c1 |
| 190 to 192 | O=C(O)c1cc([N+](=O)[O-])cn1Cc1sccc1Br |
| < 17 | CC(O)c1cc2ccccc2o1 (configuration not stated) |
| 169 to 171 | Cc1ccc(C(=O)NO)cc1O |
| 105 to 107 | CC(C)COc1ccc(C(=O)O)cn1 |
| 143 to 145 | O=C(O)c1ccon1 |
| 214 to 216 | O=C(O)C1CCCN(c2ncnc3sccc23)C1 (configuration not stated) |
| 114 to 116 | Cc1cc(O)nc(-c2ccccn2)n1 |

| SMILES | melting point [°C] |
| --- | --- |
| CC(C)(C)n1cc(C(=O)O)c(-c2ccccc2Cl)n1 | 164 to 166 |
| COC(=O)C1C2CCC(N2)C1C(=O)OC (configuration not stated) | 77 to 79 |
| NC1(c2ccc(Cl)cc2)CCOCC1 | 50 to 52 |
